In patent publication US20260166182A1, “CYANINE-BASED FLUOROPHORES” (The General Hospital Corporation, priority 2022, published 2026):

Columns and labels:
[1] = Optical study in EtOH, DMSO, HEPES and PBS; assay type: physicochemical
Method: Optical Study, Photostability, Physicochemical Properties, and DFT Calculation: 1 mM stock solution in DMSO of the synthesized fluorophores was prepared before starting any spectral measurement. Optical properties for the synthesized fluorophores were measured in four different solvents (EtOH, DMSO, HEPES, and PBS). Absorbance spectra were measured in a Varian Cary 50 absorbance spectrophotometer (190-1100 nm). Fluorescence emission and photostability were measured and emission spectra were recorded on a Shimadzu RF-5301PC spectrofluorometer. Physicochemical properties (Log D, molecular mass, TPSA, H bond D/A, polarizability, molecular volume, and rotatable bonds) were predicted by ChemAxon (JChem plugin). Theoretical calculations of frontier molecular orbitals (FMOs) for the optimized structures of selected fluorophores were calculated based on DFT calculations at the B3LYP/6-311G(d,p) level.
In vivo success of a contrast agent can depend on the absorption and emission profiles, molar extinction coefficient, quantum yield, molecular brightness, physicochemical properties, and photochemical stability. Different types of polymethine bridges can have an impact on the structural geometry of the fluorophores and the absorption and emission profiles. Optical properties were measured in polar protic EtOH, polar aprotic DMSO, and two buffer solutions, phosphate-buffered saline (PBS, PH ˜7.4) and 4-(2-hydroxyethyl)-1-piperazine-ethanesulfonic acid (HEPES, PH ˜7.4). Organic solvents such as ethanol (EtOH) and dimethyl sulfoxide (DMSO) are often used in spectroscopic experiments to observe the absorption and emission maximum, whereas buffer solvents PBS and HEPES were used to mimic the biological environment, as these synthesized fluorophores are intended to be used in bioimaging. The absorbance profiles of these fluorophores were recorded at various concentrations (0.8, 1.6, 2.4, 3.2, 4.0 μM) and the absorbance values obtained were plotted against each of the concentrations. […] Fluorophores 18-21 refer to the labels in Example 4 and FIG. 7D.
The molar extinction coefficient is an intrinsic property of any fluorophore and can be important for high image resolution. […] These properties vary with the structure change and are difficult to predict beforehand. The optical properties of the synthesized fluorophores were measured in various media. All measurements were performed in 2 different organic solvents (EtOH and DMSO) and 2 different buffer (HEPES and PBS), and ICG was used as a reference (ΦICG=0.043).

[2] = system: lung carcinoma (LLC cell line); assay: NIR-II fluorescence imaging of subcutaneous LLC tumor-bearing C57BL/6 mice; assay type: in vivo, mouse
Excerpt: General NIR-II fluorescence imaging: A 640×512-pixel InGaAs camera (Ninox640, Raptor Photonics) and macro zoom lens (0-10×; Navitar Zoom 7000 with SWIR coating) along with 900, 1070, 1100, and 1200 nm long-pass (LP) filters from either Thorlab or Edmund optics were used to collect the NIR-II signal. InGaAs camera played a role as an open-air imaging system along with the support of the FLARE system. An 808 nm fiber-coupled diode laser ([…] at the sample) was used as an excitation source. Data acquisition was done using in-house developed software. […] Mice were imaged with intact skin using InGaAs camera. At least 3 mice were analyzed for each sample. Tumor-bearing mouse models: Animals were housed in an AAALAC-certified facility and were studied under the protocols approved by the MGH IACUC (2016N000136). Mice were maintained under anesthesia with isoflurane and oxygen during the experiment. To establish the various tumor-bearing mouse models including lung carcinoma, pancreatic ductal adenocarcinoma (PDAC), and triple negative breast adenocarcinoma, eight-week-old C57BL/6 mice (Taconic Farms, Germantown, NY) were subcutaneously injected with 2×10^5 LLC, Pan02, and E0771 cells suspended in DMEM/Matrigel (100 μL, 50 v/v %) in the flank region, respectively. Female C57BL/6 mice were used for the breast cancer (E0771) model, otherwise male mice were used. […] Statistical analysis: The fluorescence and background intensities of a region of interest over each tissue were quantified using customized imaging software and ImageJ v1.48 (National Institutes of Health, Bethesda, MD). The signal-to-background ratio (SBR) was calculated as SBR=fluorescence/background, where background was the fluorescence intensity of muscle. Data were reported as mean±s.e.m. with a minimum of three biological replicates. Student's t-test statistical analysis was performed to evaluate the significance of the experimental data. The differences among groups were determined using one-way ANOVA analysis to assess the statistical differences among more than two groups. […] The data was indicated with *p<0.05, ** p<0.01, *** p<0.001, and **** p<0.0001.

Compound: CCCCN1/C(=C/C=C2\CCCC(/C=C/C3=[N+](CCCC)c4ccc(Cl)cc4C3(C)C)=C2Cl)C(C)(C)c2cc(Cl)ccc21 [SH1, 1-butyl-2-((E)-2-((E)-3-(2-((E)-1-butyl-5-chloro-3,3-dimethylindolin-2-ylidene)ethylidene)-2-chlorocyclohex-1-en-1-yl)vinyl)-5-chloro-3,3-dimethyl-3H-indol-1-ium]
- molar extinction coefficient ([1]; DMSO): 203,000 cm^−1 M^−1
- molar extinction coefficient ([1]; EtOH): 270,000 cm^−1 M^−1
- Stokes shift ([1]; HEPES): 140 nm
- absorbance maximum ([1]; HEPES): 661 nm
- emission wavelength ([1]; HEPES): 802 nm
- molar extinction coefficient ([1]; HEPES): 44,000 cm^−1 M^−1
- molar extinction coefficient ([1]; PBS): 41,000 cm^−1 M^−1
- tumor targeting / tumor signal ([2]; intravenous, NIR-II imaging until 48 h post-injection): superb signal intensity in tumor area
- TBR ([2]; larger-sized lung tumors): 23.7
